Our source for the DC50 and Dmax values is patent US20240261418A1, “SOS1 DEGRADING AGENT AND PREPARATION METHOD THEREFOR AND APPLICATION THEREOF” (SHANGHAI LEADINGTAC PHARMACEUTICAL CO. LTD., priority 2021, published 2024).

The assay has as its target T1, SOS1 protein (Homo sapiens, UniProt Q07889).
T1 sequence (Q07889 1-1333): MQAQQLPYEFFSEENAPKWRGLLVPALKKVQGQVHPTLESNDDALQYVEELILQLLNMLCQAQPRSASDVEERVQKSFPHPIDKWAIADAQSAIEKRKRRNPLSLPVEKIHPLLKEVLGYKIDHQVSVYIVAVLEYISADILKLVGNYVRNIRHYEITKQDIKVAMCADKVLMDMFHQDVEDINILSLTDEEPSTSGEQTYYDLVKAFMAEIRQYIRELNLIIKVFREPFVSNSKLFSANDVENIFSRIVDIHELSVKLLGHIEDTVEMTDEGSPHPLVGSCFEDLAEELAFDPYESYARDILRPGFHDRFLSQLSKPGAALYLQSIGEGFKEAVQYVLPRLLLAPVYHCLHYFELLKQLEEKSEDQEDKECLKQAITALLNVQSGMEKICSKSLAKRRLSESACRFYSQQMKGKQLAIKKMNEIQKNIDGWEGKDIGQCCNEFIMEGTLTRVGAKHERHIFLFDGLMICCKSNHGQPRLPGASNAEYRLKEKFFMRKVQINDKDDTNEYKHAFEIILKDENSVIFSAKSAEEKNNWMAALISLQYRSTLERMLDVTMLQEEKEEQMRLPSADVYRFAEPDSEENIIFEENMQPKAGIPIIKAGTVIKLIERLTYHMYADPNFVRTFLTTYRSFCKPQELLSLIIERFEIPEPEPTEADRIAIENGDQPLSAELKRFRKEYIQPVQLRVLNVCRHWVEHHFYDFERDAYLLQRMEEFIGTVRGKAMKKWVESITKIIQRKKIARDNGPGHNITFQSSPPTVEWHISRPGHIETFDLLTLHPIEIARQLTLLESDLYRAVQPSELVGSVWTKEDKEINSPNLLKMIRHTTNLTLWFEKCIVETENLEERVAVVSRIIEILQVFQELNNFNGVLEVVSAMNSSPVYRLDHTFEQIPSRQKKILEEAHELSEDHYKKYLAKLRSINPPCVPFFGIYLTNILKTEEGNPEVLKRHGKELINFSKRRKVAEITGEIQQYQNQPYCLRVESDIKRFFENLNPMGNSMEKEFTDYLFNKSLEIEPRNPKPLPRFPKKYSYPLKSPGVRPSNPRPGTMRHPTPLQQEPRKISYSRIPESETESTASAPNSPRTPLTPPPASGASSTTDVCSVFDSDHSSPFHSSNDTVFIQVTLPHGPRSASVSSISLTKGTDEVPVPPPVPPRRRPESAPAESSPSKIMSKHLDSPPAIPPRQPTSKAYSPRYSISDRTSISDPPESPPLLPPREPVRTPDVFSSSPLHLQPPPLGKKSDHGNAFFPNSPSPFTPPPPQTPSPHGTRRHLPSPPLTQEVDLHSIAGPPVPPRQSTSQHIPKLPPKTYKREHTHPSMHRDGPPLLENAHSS
Kind of assay: SOS1 degradation assay (Western blot) in NCI-H358 cells. The assay is classed as cell-based. The settings on record: NCI-H358 (KRAS G12C), 24 h. The method, then:
The specific procedures were as follows:
0.95 mL of cells were seeded into each well of a 24-well cell culture plate to achieve a cell density of 5×10^5 cells/well; the cell plate was incubated in an incubator at 37° C. with 5% CO2 overnight. Then 50 μL of the compound solution after dilution was added to each of the wells with the corresponding cells, so that the final concentration of the compound was in a range of 0.03-3000 nM.
After dosing, the cell plate was incubated in an incubator at 37° C. with 5% CO2 for 24 h. […] After the plate was left to stand on ice for 30 min, the protein lysate in each well was transferred to a 1.5 mL centrifuge tube and centrifuged at 15000 g for 20 min at 4° C. The cell lysate supernatant after centrifugation was cryopreserved at −80° C. for testing and was used for determining the degradation level of the SOS1 protein by a WB method. The concentration of total protein in the cell lysate supernatant was determined using the BCA Protein Quantification Kit (Tiangen, PA115-02).
The concentration of total protein in the cell lysate was determined by BCA. The total protein was adjusted to 0.5 μg/μL with PBS and 5×SDS- PAGE protein loading buffer (Beyotime, P001L), incubated in a water bath at 100° C. for 15 min, incubated in an ice bath on ice for 5 min, centrifuged at 14000 g for 1 min at 4° C., and mixed well as a loading sample for WB. Protein electrophoresis was performed on a precast gel (KeyGEN, KGMG010W15) with a loading volume of 10 μL (total protein: 5 μg) using a Tris-MOPS-SDS running solution (Adamas, P1598253) at a constant voltage of 120 V for 55 min. After the electrophoresis, the protein on the gel strip was transferred to a PVDF membrane at a constant current of 250 mA for 65 min. After the membrane transfer, the membrane was incubated in 1× QuickBlock blocking buffer (Beyotime, P0235) for 30 min at room temperature. […] The protein map was subjected to gray value analysis by the chemiluminescence imaging system from Clinx. […] Then the degradation rate was calculated by comparing the gray correction value with the gray correction value of the control group. Then nonlinear curve fitting was performed by GraphPad Prism 8 in the logarithmic concentration-inhibition rate to obtain the DC50 and Dmax values of the compounds.
For orientation: A western blot detects proteins with antibodies after separation by electrophoresis.

Take `COc1cc2nc(C)nc(N[C@H](C)c3cc(-c4c(Cl)cccc4CN(C)C)cs3)c2cc1[C@H]1CC[C@H](C(=O)N2CCN(CC3CCC4(CC3)CCN(C(=O)c3ccc(Cl)c(N5CCC(=O)NC5=O)c3)CC4)CC2)CC1` [Example 1, 1-(2-chloro-5-(9-((4-((1R,4R)-4-(4-(((R)-1-(4-(2-chloro-6-((dimethylamino)methyl)phenyl)thien-2-yl)ethyl)amino)-7-methoxy-2-methylquinazolin-6-yl)cyclohexane-1-carbonyl)piperazin-1-yl)methyl)-3-azaspiro[5.5]undecane-3-carbonyl)phenyl)dihydropyrimidine-2,4(1H,3H)-dione]: the DC50 – broadly, the concentration at which degradation of the target reaches its halfway point – is less than 50 nM and the Dmax (in general, the largest share of the target that was removed) lay within 80 to 100%.
On the same counts, the results for `COc1cc2nc(C)nc(N[C@H](C)c3cc(-c4c(Cl)cccc4CN(C)C)cs3)c2cc1[C@H]1CC[C@H](C(=O)N2CCC(CCOCC3CCN(C(=O)c4ccc(Cl)c(N5CCC(=O)NC5=O)c4)CC3)CC2)CC1` [Example 5, 1-(2-chloro-5-(4-((2-(1-((1R,4R)-4-(4-(((R)-1-(4-(2-chloro-6-((dimethylamino)methyl)phenyl)thien-2-yl)ethyl)amino)-7-methoxy-2-methylquinazolin-6-yl)cyclohexane-1-carbonyl)piperidin-4-yl)ethoxy)methyl)piperidine-1-carbonyl)phenyl)dihydropyrimidine-2,4(1H,3H)-dione] are less than 50 nM and 80 to 100%.
